Patent US4742049A, “Semisynthetic erythromycin antibiotics” (Abbott Laboratories, priority 1986, dated 1988)
Values after ≈ are worked out from the molar mass of the structure shown. Like-named read-outs stand apart in the source and are kept apart here.

Experiments:
[1] = tested on: gut contractions (stomach, duodenum, jejunum); details: dog, in vivo, iv, 4 mg/kg
Protocol: Compounds of this invention have been tested for gastrointestinal stimulating activity in a dog model at 4 mg/kg intravenously. Contractions in the gut were recorded with surgically implanted strain gauges. […] Ratios were calculated for the stomach, duodenum and jejunum, and a final arithmetic mean index was calculated and reported in Table 1.

Haemophilus influenzae = test: MIC against strains of Haemophilus influenzae; assay type: cell-based
Protocol: Erythromycin A was used for this purpose.
After incubation, each disk is read.
In the manner of Example 23, the efficacy of compounds of this invention were tested against numerous strains of Haemophilus influenzae.

[2] = Haemophilus influenzae, ATCC9006, strain ATCC 9006, read-out: MIC
[3] = Haemophilus influenzae, ATCC9795, strain ATCC 9795, read-out: MIC
[4] = Haemophilus influenzae, ATCC10211, strain ATCC 10211, read-out: MIC
[5] = Haemophilus influenzae, ATCC19418, strain ATCC 19418, read-out: MIC
[6] = Haemophilus influenzae, strain 504, read-out: MIC
[7] = Haemophilus influenzae, strain 519A, read-out: MIC
[8] = Haemophilus influenzae, strain 566A, read-out: MIC
[9] = Haemophilus influenzae, strain 588A, read-out: MIC
[10] = Haemophilus influenzae, strain 632A, read-out: MIC
[11] = Haemophilus influenzae, strain 667A, read-out: MIC
[12] = Haemophilus influenzae, strain 747C, read-out: MIC
[13] = Haemophilus influenzae, strain 751, read-out: MIC
[14] = Haemophilus influenzae, strain 1177, read-out: MIC
[15] = Haemophilus influenzae, strain 1435, read-out: MIC
[16] = Haemophilus influenzae, strain 5036B, read-out: MIC
[17] = Haemophilus influenzae, strain DILL AMP R, read-out: MIC
[18] = Haemophilus influenzae, strain SOL AMP R, read-out: MIC
[19] = Haemophilus influenzae, strain SPK AMP R, read-out: MIC

Compound | MIC (Haemophilus influenzae; [2]) | MIC (Haemophilus influenzae; [3]) | MIC (Haemophilus influenzae; [4]) | MIC (Haemophilus influenzae; [5]) | MIC (Haemophilus influenzae; [6]) | MIC (Haemophilus influenzae; [7]) | MIC (Haemophilus influenzae; [8]) | MIC (Haemophilus influenzae; [9]) | MIC (Haemophilus influenzae; [10]) | MIC (Haemophilus influenzae; [11]) | MIC (Haemophilus influenzae; [12]) | MIC (Haemophilus influenzae; [13]) | MIC (Haemophilus influenzae; [14]) | MIC (Haemophilus influenzae; [15]) | MIC (Haemophilus influenzae; [16]) | MIC (Haemophilus influenzae; [17]) | MIC (Haemophilus influenzae; [18]) | MIC (Haemophilus influenzae; [19]) | other results
CC[C@H]1OC(=O)[C@H](C)[C@@H](O[C@H]2C[C@@](C)(OC)[C@@H](O)[C@H](C)O2)[C@H](C)[C@@H](O[C@@H]2O[C@H](C)C[C@H](N(C)C)[C@H]2O)[C@](C)(O)C[C@@H](C)C(=O)[C@H](C)[C@H]2NC(=O)O[C@@]21C [Example 18, 11-deoxyerythromycin A 11,12-cyclic carbamate] | – | – | – | – | – | – | – | – | – | – | – | – | – | – | – | – | – | – | Gastrointestinal Motility Index [1]: 3.60
CC[C@H]1OC(=O)[C@H](C)[C@@H](O[C@H]2C[C@@](C)(OC)[C@@H](O)[C@H](C)O2)[C@H](C)[C@@H](O[C@@H]2O[C@H](C)C[C@H](N(C)C)[C@H]2O)[C@](C)(OC)C[C@@H](C)C(=O)[C@H](C)[C@H]2N(CCCN(C)C)C(=O)O[C@]12C [Example 12, 11-deoxy-6-O-methyl erythromycin A 11,12-[N-(3-dimethylamino)propyl]cyclic carbamate] | 0.5 µg/mL (≈ 0.583 µM) | 0.5 µg/mL (≈ 0.583 µM) | 1 µg/mL (≈ 1.17 µM) | 1 µg/mL (≈ 1.17 µM) | 1 µg/mL (≈ 1.17 µM) | 0.5 µg/mL (≈ 0.583 µM) | 1 µg/mL (≈ 1.17 µM) | 0.5 µg/mL (≈ 0.583 µM) | 0.5 µg/mL (≈ 0.583 µM) | 0.5 µg/mL (≈ 0.583 µM) | 0.5 µg/mL (≈ 0.583 µM) | 0.5 µg/mL (≈ 0.583 µM) | 0.5 µg/mL (≈ 0.583 µM) | 0.25 µg/mL (≈ 0.291 µM) | 1 µg/mL (≈ 1.17 µM) | 0.5 µg/mL (≈ 0.583 µM) | 0.5 µg/mL (≈ 0.583 µM) | 0.5 µg/mL (≈ 0.583 µM) | –
CC[C@H]1OC(=O)[C@H](C)[C@@H](O[C@H]2C[C@@](C)(OC)[C@@H](O)[C@H](C)O2)[C@H](C)[C@@H](O[C@@H]2O[C@H](C)C[C@H](N(C)C)[C@H]2O)[C@](C)(OC)C[C@@H](C)C(=O)[C@H](C)[C@H]2N(CCCO)C(=O)O[C@]12C [Example 15, 11-deoxy-6-O-methyl erythromycin A 11,12-(N-3-hydroxypropyl)cyclic carbamate] | 0.5 µg/mL (≈ 0.602 µM) | 0.5 µg/mL (≈ 0.602 µM) | 1 µg/mL (≈ 1.2 µM) | 1 µg/mL (≈ 1.2 µM) | 1 µg/mL (≈ 1.2 µM) | 0.5 µg/mL (≈ 0.602 µM) | 1 µg/mL (≈ 1.2 µM) | 1 µg/mL (≈ 1.2 µM) | 1 µg/mL (≈ 1.2 µM) | 1 µg/mL (≈ 1.2 µM) | 0.5 µg/mL (≈ 0.602 µM) | 1 µg/mL (≈ 1.2 µM) | 1 µg/mL (≈ 1.2 µM) | 0.5 µg/mL (≈ 0.602 µM) | 1 µg/mL (≈ 1.2 µM) | 0.5 µg/mL (≈ 0.602 µM) | 0.5 µg/mL (≈ 0.602 µM) | 1 µg/mL (≈ 1.2 µM) | –
11-deoxy-6-O-methyl erythromycin A 11,12-(N-3-hydroxyethyl)cyclic carbamate [Example 16] | – | – | – | – | – | – | – | – | – | – | – | – | – | – | – | – | – | – | MIC (Haemophilus influenzae; strain 504): 1 µg/mL; MIC (Haemophilus influenzae; strain 519A): .5 µg/mL; MIC (Haemophilus influenzae; strain 566A): 1 µg/mL; MIC (Haemophilus influenzae; strain 588A): .5 µg/mL; MIC (Haemophilus influenzae; strain 632A): 1 µg/mL; MIC (Haemophilus influenzae; strain 667A): 1 µg/mL; MIC (Haemophilus influenzae; strain 747C): .5 µg/mL; MIC (Haemophilus influenzae; strain 751): 1 µg/mL; MIC (Haemophilus influenzae; strain 1177): 1 µg/mL; MIC (Haemophilus influenzae; strain 1435): .25 µg/mL; MIC (Haemophilus influenzae; strain 5036B): 1 µg/mL; MIC (Haemophilus influenzae; strain ATCC 9006): .5 µg/mL; MIC (Haemophilus influenzae; strain ATCC 9795): .5 µg/mL; MIC (Haemophilus influenzae; strain ATCC 10211): 1 µg/mL; MIC (Haemophilus influenzae; strain ATCC 19418): .5 µg/mL; MIC (Haemophilus influenzae; strain DILL AMP R): .5 µg/mL; MIC (Haemophilus influenzae; strain SOL AMP R): .5 µg/mL; MIC (Haemophilus influenzae; strain SPK AMP R): 1 µg/mL
